Assay results taken from PubChem BioAssay AID1259407 (Chemical Carcinogenesis Research Information System (CCRIS), 2018).
Calls of active or inactive are those of the source. No rule for the calls is given here.

System: CCRIS mutagenicity, Ames/micronucleus/aberration tests
Experiment: CCRIS mutagenicity studies
[1] = Test System: AMES SALMONELLA TYPHIMURIUM, Strain/Indicator: TA97, Metabolic Activation: HAMSTER, LIVER, S-9, AROCLOR 1254 (10 OR 30%), Method: PREINCUBATION
[2] = Test System: AMES SALMONELLA TYPHIMURIUM, Strain/Indicator: TA97, Metabolic Activation: NONE, Method: PREINCUBATION
[3] = Test System: AMES SALMONELLA TYPHIMURIUM, Strain/Indicator: TA97, Metabolic Activation: RAT, LIVER, S-9, AROCLOR 1254 (10 OR 30%), Method: PREINCUBATION
[4] = Test System: AMES SALMONELLA TYPHIMURIUM, Strain/Indicator: TA98, Metabolic Activation: HAMSTER, LIVER, S-9, AROCLOR 1254 (10 OR 30%), Method: PREINCUBATION
[5] = Test System: AMES SALMONELLA TYPHIMURIUM, Strain/Indicator: TA98, Metabolic Activation: NONE, Method: PREINCUBATION
[6] = Test System: AMES SALMONELLA TYPHIMURIUM, Strain/Indicator: TA98, Metabolic Activation: RAT, LIVER, S-9, AROCLOR 1254 (10 OR 30%), Method: PREINCUBATION
[7] = Test System: AMES SALMONELLA TYPHIMURIUM, Strain/Indicator: TA100, Metabolic Activation: NONE, Method: PREINCUBATION
[8] = Test System: AMES SALMONELLA TYPHIMURIUM, Strain/Indicator: TA1535, Metabolic Activation: HAMSTER, LIVER, S-9, AROCLOR 1254 (10 OR 30%), Method: PREINCUBATION
[9] = Test System: AMES SALMONELLA TYPHIMURIUM, Strain/Indicator: TA1535, Metabolic Activation: NONE, Method: PREINCUBATION
[10] = Test System: AMES SALMONELLA TYPHIMURIUM, Strain/Indicator: TA1535, Metabolic Activation: RAT, LIVER, S-9, AROCLOR 1254 (10 OR 30%), Method: PREINCUBATION
[11] = Test System: AMES SALMONELLA TYPHIMURIUM, Strain/Indicator: TA1537, Metabolic Activation: NONE, Method: PREINCUBATION
[12] = Test System: AMES SALMONELLA TYPHIMURIUM, Strain/Indicator: TA98, Metabolic Activation: NONE, Method: STANDARD PLATE
[13] = Test System: AMES SALMONELLA TYPHIMURIUM, Strain/Indicator: TA98, Metabolic Activation: RAT, LIVER, S-9, AROCLOR 1254, Method: STANDARD PLATE
[14] = Test System: AMES SALMONELLA TYPHIMURIUM, Strain/Indicator: TA100, Metabolic Activation: NONE, Method: STANDARD PLATE
[15] = Test System: AMES SALMONELLA TYPHIMURIUM, Strain/Indicator: TA100, Metabolic Activation: RAT, LIVER, S-9, AROCLOR 1254, Method: STANDARD PLATE
[16] = Test System: AMES SALMONELLA TYPHIMURIUM, Strain/Indicator: TA100, Metabolic Activation: HAMSTER, LIVER, S-9, AROCLOR 1254 (10%), Method: PREINCUBATION
[17] = Test System: AMES SALMONELLA TYPHIMURIUM, Strain/Indicator: TA100, Metabolic Activation: RAT, LIVER, S-9, AROCLOR 1254 (10%), Method: PREINCUBATION

Q: What does the source list for CCCCCCCCCC(=O)O?
A: mutagenic call [1]: inactive; negative; mutagenic call [2]: inactive; negative; mutagenic call [3]: inactive; negative; mutagenic call [4]: inactive; negative; mutagenic call [5]: inactive; negative; mutagenic call [6]: inactive; negative; mutagenic call (Test System: AMES SALMONELLA TYPHIMURIUM, Strain/Indicator: TA100, Metabolic Activation: HAMSTER, LIVER, S-9, AROCLOR 1254 (10 OR 30%), Method: PREINCUBATION): inactive; negative; mutagenic call [7]: inactive; negative; mutagenic call (Test System: AMES SALMONELLA TYPHIMURIUM, Strain/Indicator: TA100, Metabolic Activation: RAT, LIVER, S-9, AROCLOR 1254 (10 OR 30%), Method: PREINCUBATION): inactive; negative; mutagenic call [8]: inactive; negative; mutagenic call [9]: inactive; negative; mutagenic call [10]: inactive; negative; mutagenic call (Test System: AMES SALMONELLA TYPHIMURIUM, Strain/Indicator: TA1537, Metabolic Activation: HAMSTER, LIVER, S-9, AROCLOR 1254 (10 OR 30%), Method: PREINCUBATION): inactive; negative; mutagenic call [11]: inactive; negative; mutagenic call (Test System: AMES SALMONELLA TYPHIMURIUM, Strain/Indicator: TA1537, Metabolic Activation: RAT, LIVER, S-9, AROCLOR 1254 (10 OR 30%), Method: PREINCUBATION): inactive; negative

Q: For COc1ccc([C@H]2O[C@H]2C(=O)c2ccccc2)cc1, which mutagenic call [12] is on record?
A: inactive; negative

Q: And the mutagenic call [13]?
A: inactive; negative

Q: And the mutagenic call [14]?
A: active; positive

Q: What about the mutagenic call [15] of the same compound?
A: active; positive

Q: With O=[N+]([O-])c1ccc2ccc3cc4c(c5ccc1c2c35)C=C[C@H](O)[C@H]4O as the compound, how does the mutagenic call (Test System: AMES SALMONELLA TYPHIMURIUM, Strain/Indicator: TA98(1,8-DNP6), Metabolic Activation: NONE) read?
A: active; positive

Q: And the mutagenic call (Test System: AMES SALMONELLA TYPHIMURIUM, Strain/Indicator: TA98(1,8-DNP6), Metabolic Activation: RAT, LIVER, S-9, AROCLOR 1254)?
A: active; positive

Q: And the mutagenic call (Test System: AMES SALMONELLA TYPHIMURIUM, Strain/Indicator: TA98(NR), Metabolic Activation: NONE)?
A: active; positive

Q: What about the mutagenic call (Test System: AMES SALMONELLA TYPHIMURIUM, Strain/Indicator: TA98(NR), Metabolic Activation: RAT, LIVER, S-9, AROCLOR 1254) of the same compound?
A: active; positive

Q: What about the mutagenic call (Test System: AMES SALMONELLA TYPHIMURIUM, Strain/Indicator: TA98, Metabolic Activation: NONE) of the same compound?
A: active; positive

Q: And the mutagenic call (Test System: AMES SALMONELLA TYPHIMURIUM, Strain/Indicator: TA98, Metabolic Activation: RAT, LIVER, S-9, AROCLOR 1254)?
A: active; positive

Q: What about the mutagenic call (Test System: CHINESE HAMSTER OVARY, Strain/Indicator: CHO-K1-BH4 (HGPRT), Metabolic Activation: NONE) of the same compound?
A: active; positive

Q: And the mutagenic call (Test System: CHINESE HAMSTER OVARY, Strain/Indicator: CHO-K1-BH4 (HGPRT), Metabolic Activation: RAT, LIVER, S-9, 3-METHYLCHOLANTHRENE)?
A: active; positive

Q: With [N-]=[N+]=NC[C@@H](O)[C@H](O)[C@H](O)[C@@H](O)C(=O)O as the compound, how does the mutagenic call [12] read?
A: inactive; negative

Q: And the mutagenic call [14]?
A: active; positive

Q: What does the source list for CCCCCCCCCCCOC(=O)c1ccccc1C(=O)OCCCCCCCCCCC?
A: mutagenic call (Test System: AMES SALMONELLA TYPHIMURIUM, Strain/Indicator: TA98, Metabolic Activation: HAMSTER, LIVER, S-9, AROCLOR 1254 (10%), Method: PREINCUBATION): inactive; negative; mutagenic call [5]: inactive; negative; mutagenic call (Test System: AMES SALMONELLA TYPHIMURIUM, Strain/Indicator: TA98, Metabolic Activation: RAT, LIVER, S-9, AROCLOR 1254 (10%), Method: PREINCUBATION): inactive; negative; mutagenic call [16]: inactive; negative; mutagenic call [7]: inactive; negative; mutagenic call [17]: inactive; negative; mutagenic call (Test System: AMES SALMONELLA TYPHIMURIUM, Strain/Indicator: TA1535, Metabolic Activation: HAMSTER, LIVER, S-9, AROCLOR 1254 (10%), Method: PREINCUBATION): inactive; negative; mutagenic call [9]: inactive; negative; mutagenic call (Test System: AMES SALMONELLA TYPHIMURIUM, Strain/Indicator: TA1535, Metabolic Activation: RAT, LIVER, S-9, AROCLOR 1254 (10%), Method: PREINCUBATION): inactive; negative; mutagenic call (Test System: AMES SALMONELLA TYPHIMURIUM, Strain/Indicator: TA1537, Metabolic Activation: HAMSTER, LIVER, S-9, AROCLOR 1254 (10%), Method: PREINCUBATION): inactive; negative; mutagenic call [11]: inactive; negative; mutagenic call (Test System: AMES SALMONELLA TYPHIMURIUM, Strain/Indicator: TA1537, Metabolic Activation: RAT, LIVER, S-9, AROCLOR 1254 (10%), Method: PREINCUBATION): inactive; negative; mutagenic call (Test System: MOUSE LYMPHOMA, Strain/Indicator: L5178Y (TK+/TK-), Metabolic Activation: NONE, Method: SUSPENSION/PLATE): inactive; negative; mutagenic call (Test System: MOUSE LYMPHOMA, Strain/Indicator: L5178Y (TK+/TK-), Metabolic Activation: RAT LIVER S-9, Method: SUSPENSION/PLATE): inactive; negative

Q: For COc1cc(N=Nc2ccc(N)cc2)c(C)cc1N=Nc1c(S(=O)(=O)O)cc2ccc(N)cc2c1O, which mutagenic call [12] is on record?
A: inactive; negative

Q: And the mutagenic call [13]?
A: active; positive

Q: And the mutagenic call [14]?
A: inactive; negative

Q: And the mutagenic call [15]?
A: active; positive

Q: What about the mutagenic call (Test System: AMES SALMONELLA TYPHIMURIUM, Strain/Indicator: TA1538, Metabolic Activation: NONE, Method: STANDARD PLATE) of the same compound?
A: inactive; negative

Q: What about the mutagenic call (Test System: AMES SALMONELLA TYPHIMURIUM, Strain/Indicator: TA1538, Metabolic Activation: RAT, LIVER, S-9, AROCLOR 1254, Method: STANDARD PLATE) of the same compound?
A: active; positive

Q: How did the mutagenic call (Test System: AMES SALMONELLA TYPHIMURIUM, Strain/Indicator: TM677, Metabolic Activation: RAT, LIVER, S-9, AROCLOR 1254, Method: PREINCUBATION) turn out when C=C1C[C@@]23CC[C@H]4[C@@](C)(CCC[C@@]4(C)C(=O)O)[C@@H]2CC[C@]1(O[C@@H]1O[C@H](CO)[C@@H](O)[C@H](O)[C@H]1O)C3 was run?
A: active; positive

Q: Which results are given for c1ccc(COCc2ccccc2)cc1?
A: mutagenic call [1]: inactive; negative; mutagenic call [2]: inactive; negative; mutagenic call [3]: inactive; negative; mutagenic call [4]: inactive; negative; mutagenic call [5]: inactive; negative; mutagenic call [6]: inactive; negative; mutagenic call (Test System: AMES SALMONELLA TYPHIMURIUM, Strain/Indicator: TA98, Metabolic Activation: RAT, LIVER, S-9, AROCLOR 1254 (30%), Method: PREINCUBATION): inactive; negative; mutagenic call [16]: inactive; negative; mutagenic call (Test System: AMES SALMONELLA TYPHIMURIUM, Strain/Indicator: TA100, Metabolic Activation: HAMSTER, LIVER, S-9, AROCLOR 1254 (30%), Method: PREINCUBATION): inactive; negative; mutagenic call [7]: inactive; negative; mutagenic call [17]: inactive; negative; mutagenic call (Test System: AMES SALMONELLA TYPHIMURIUM, Strain/Indicator: TA100, Metabolic Activation: RAT, LIVER, S-9, AROCLOR 1254 (30%), Method: PREINCUBATION): inactive; negative; mutagenic call [8]: inactive; negative; mutagenic call [9]: inactive; negative; mutagenic call [10]: inactive; negative

Q: Cc1cc2c(O)cccc2c2cc3c(cc12)C=C[C@H](O)[C@H]3O was tested. Which mutagenic call (Test System: AMES SALMONELLA TYPHIMURIUM, Strain/Indicator: TA100, Metabolic Activation: RAT, LIVER, S-9, AROCLOR 1254, Method: PREINCUBATION) did it give?
A: active; positive
